Experiment: Aerodynamic particle size distribution on Next Generation Impactor (NGI)
Format: physicochemical
Settings: sample 14 sprayed by soft mist inhaler, NGI at 30 L/min
Protocol: Sample 14 was sprayed by a soft mist inhaler. Aerodynamic particle size distribution of droplets of sample 14 was measured on a Next Generation Impactor (NGI). Next Generation Impactor operated at a flow rate of 30 L/min was used for determination of particle size distribution. For each of the impactor experiments, the impactor collection stages were coated with a silicone oil. The particle size distribution is expressed in terms of mass median aerodynamic diameter (MMAD) and Geometric Standard Deviation (GSD).

Question: With `O=C(O[C@H]1C[N+]2(CCCOc3ccccc3)CCC1CC2)C(O)(c1cccs1)c1cccs1.[Br-]` [Aclidinium bromide, 3(R)-(2-hydroxy-2,2-dithien-2-ylacetoxy)-1-(3-phenoxypropyl)-1-azoniabicy-clo[2.2.2]octane bromide] as the molecule, how does the “MMAD (mass median aerodynamic diameter)” value read?
Answer: Its value is 4.49 μm.

Source: patent publication US20200405700A1 (priority 2019, published 2020)
